Reference: ChEMBL document CHEMBL4376804, “Review of Transient Receptor Potential Canonical (TRPC5) Channel Modulators and Diseases” (J Med Chem, 2019)

Assays:
[1] = Selectivity ratio of IC50 for YFP-tagged human TRPC6 expressed in thapsigargin treated HEK293 cells to IC50 for mouse TRPC5 expressed in thapsigargin treated HEK293/TREx cells; assay type: cell-based
[2] = Selectivity ratio of IC50 for YFP-tagged human TRPC3 expressed in thapsigargin treated HEK293 cells to IC50 for mouse TRPC5 expressed in thapsigargin treated HEK293/TREx cells; assay type: cell-based

SMILES: Clc1ccc(Cn2c(CN3CCCC3)nc3ccccc32)cc1 [CLEMIZOLE]
- Ratio IC50 [1]: 10
- Ratio IC50 [2]: 10
